Measurements reported in ChEMBL document CHEMBL1201862, “PubChem BioAssay data set” (2004).
Where “and” joins values, the source holds several entries; their conditions need not be identical. Identical values can stand only once.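 Dose response: 5 concentrations. Exposure: 48 h. Format: 96-well plates. Endpoint: linear interpolation; highest concentration if not reached. At the GI50, growth is halved.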 Calls of active or inactive are those of the source. Cut-off read from the data, not from the text of the source: active = GI50 up to about 1.1 µM and inactive = higher.

Tests used:
Test in all cases: inhibition of tumour cell growth, NCI panel, 48 h
[1] = test system: OVCAR-5
[2] = test system: SK-MEL-28
[3] = test system: HCT-116
[4] = test system: KM12
[5] = test system: K562
[6] = test system: M14
[7] = test system: A498
[8] = test system: U-251
[9] = test system: OVCAR-4
[10] = test system: NCI/ADR-RES
[11] = test system: OVCAR-3
[12] = test system: MDA-MB-435
[13] = test system: HCT-15
[14] = test system: SR
[15] = test system: NCI-H226
[16] = test system: ACHN
[17] = test system: CCRF-CEM
[18] = test system: OVCAR-8
[19] = test system: MOLT-4
[20] = test system: HT-29
[21] = test system: UACC-257
[22] = test system: HCC 2998
[23] = test system: MCF7
[24] = test system: UACC-62
[25] = test system: A549
[26] = test system: IGROV-1
[27] = test system: 786-0
[28] = test system: SK-MEL-2
[29] = test system: SF-295
[30] = test system: DU-145
[31] = test system: SK-OV-3
[32] = test system: SK-MEL-5
[33] = test system: RXF 393
[34] = test system: HL-60
[35] = test system: HOP-92
[36] = test system: COLO 205
[37] = test system: EKVX
[38] = test system: SW-620
[39] = test system: SNB-19
[40] = test system: SF-539
[41] = test system: TK-10
[42] = test system: UO-31
[43] = test system: LOX IMVI
[44] = test system: Malme-3M
[45] = test system: CAKI-1
[46] = test system: MDA-N
[47] = test system: NCI-H460
[48] = test system: SNB-75
[49] = test system: SN12C
[50] = test system: SF-268
[51] = test system: HOP-62
[52] = test system: T47D
[53] = test system: NCI-H522
[54] = test system: NCI-H23
[55] = test system: PC-3
[56] = test system: MDA-MB-231
[57] = test system: RPMI-8226
[58] = test system: BT-549

Measured: GI50

O=c1c2ccccc2ncn1COCc1ccccc1
inactive: [1] > 100 µM | [2] > 100 µM | [3] > 100 µM | [4] > 100 µM | [5] > 100 µM | [6] > 100 µM | [7] > 100 µM | [8] > 100 µM | [9] > 100 µM | [10] > 100 µM | [11] > 100 µM | [12] > 100 µM | [14] > 100 µM | [15] > 100 µM | [16] > 100 µM | [17] > 100 µM | [18] > 100 µM | [19] > 100 µM | [20] > 100 µM | [21] > 100 µM | [22] > 100 µM | [23] > 100 µM | [24] > 100 µM | [25] > 100 µM | [26] > 100 µM | [27] > 100 µM | [28] > 100 µM | [29] > 100 µM | [30] > 100 µM | [31] > 100 µM | [32] > 100 µM | [33] > 100 µM | [34] > 100 µM | [35] > 100 µM | [36] > 100 µM | [37] > 100 µM | [38] > 100 µM | [39] > 100 µM | [40] > 100 µM | [41] > 100 µM | [42] 77.3 µM | [43] > 100 µM
> 100 µM: [13]

Cc1cc(C)n(-c2nc3ccccc3c(=O)n2-c2ccccc2)n1
inactive: [1] > 100 µM | [2] > 100 µM | [44] > 100 µM | [45] > 100 µM | [3] > 100 µM | [46] > 100 µM | [5] > 100 µM | [6] > 100 µM | [47] > 100 µM | [7] > 100 µM | [48] > 100 µM | [8] > 100 µM | [9] > 100 µM | [10] > 100 µM | [11] > 100 µM | [12] > 100 µM | [49] > 100 µM | [14] > 100 µM | [50] > 100 µM | [15] > 100 µM | [51] > 100 µM | [16] > 100 µM | [17] > 100 µM | [52] > 100 µM | [18] > 100 µM | [19] > 100 µM | [20] > 100 µM | [21] > 100 µM | [22] > 100 µM | [53] > 100 µM | [23] > 100 µM | [54] > 100 µM | [25] > 100 µM | [26] > 100 µM | [27] > 100 µM | [28] 67 µM | [29] > 100 µM | [55] > 100 µM | [30] > 100 µM | [31] > 100 µM | [32] > 100 µM | [33] > 100 µM | [34] > 100 µM | [36] > 100 µM | [56] > 100 µM | [38] > 100 µM | [39] > 100 µM | [40] > 100 µM | [41] > 100 µM | [43] > 100 µM
active: [42] 0.621 µM
> 100 µM: [13]

O=C1Oc2ccccc2C(=O)/C1=C/NC(=S)Nc1ccccc1
28.3 µM: [13]
inactive: [1] 80.4 µM | [2] 44.2 µM | [3] 34.8 µM | [4] 49.4 µM | [46] 37.8 µM | [5] 56.4 µM | [6] 27 µM | [47] 32.1 µM | [7] 24.6 µM | [48] 20.4 µM | [9] 39.6 µM | [10] 38.5 µM | [11] 25.4 µM | [49] 40.1 µM | [50] 22.3 µM | [15] 65.9 µM | [51] 33.6 µM | [16] 23.6 µM | [17] 28.5 µM | [52] 5.96 µM | [18] 44.3 µM | [19] 31.8 µM | [21] 77.6 µM | [22] 40 µM | [53] 30.1 µM | [54] 61.4 µM | [25] 48.8 µM | [28] 15.1 µM | [29] 52.2 µM | [55] 55.6 µM | [30] 46.1 µM | [32] 42.5 µM | [36] 44.7 µM | [56] 29 µM | [37] 56.5 µM | [40] 28.7 µM | [43] 51.1 µM
active: [24] 0.834 µM | [33] 0.119 µM

O=C1c2ccccc2-c2nnc(-c3ccccc3)cc21
inactive: [1] > 10 µM | [2] > 10 µM | [44] > 10 µM | [45] > 10 µM | [5] 3.61 µM | [6] > 10 µM | [47] > 10 µM | [48] > 10 µM | [57] > 10 µM | [8] > 10 µM | [9] > 10 µM | [10] > 10 µM | [12] > 10 µM | [14] 3.83 µM | [50] > 10 µM | [51] > 10 µM | [16] > 10 µM | [17] 3.25 µM | [52] 4.48 µM | [19] 3.01 µM | [23] 3.37 µM | [24] > 10 µM | [54] > 10 µM | [25] > 10 µM | [26] > 10 µM | [27] > 10 µM | [28] > 10 µM | [31] > 10 µM | [32] > 10 µM | [33] > 10 µM | [34] 5.05 µM | [36] > 10 µM | [38] 7.6 µM

COC(=O)CCc1cc(OC)c2c(c1)C(C(=O)OC)C(c1ccc(OC)c(OC)c1)O2 (stereo not given)
inactive: [1] > 79.1 µM | [48] 10.6 µM | [9] > 100 µM and 58.5 µM | [49] 62.4 µM | [16] 59.2 µM | [52] 24.8 µM | [20] 5.32 µM | [21] > 100 µM | [22] 60.5 µM | [54] > 100 µM and > 71 µM | [58] 22.6 µM and 42.4 µM | [33] 34.9 µM | [35] > 95.7 µM | [37] > 52.5 µM | [41] > 100 µM and > 91.4 µM

Cc1cc(NCCCCCCNc2cc(C)nc3ccc(N)cc23)c2cc(N)ccc2n1
inactive: [8] 62.8 µM | [39] 58.5 µM
